In patent US20260240844A1, “INHIBITORS OF CHD1L AND USES THEREOF” (The Regents of the University of Colorado, a body corporate, priority 2023, published 2026):
Read-outs that look alike come from different tables or passages of the source.

Tests used:
[1] = tested on: SW948 tumor organoids; experiment: cells
Description: ATM is an important protein involved in the initial stages of the DNA damage response. […] ATM mutations are important markers being developed to identify metastatic CRC (mCRC) patients that may be sensitive to DNA damaging chemotherapy.
Synergy was assessed using the Bliss model.

[2] = tested on: SW620 CRC cells cultured as tumor organoids; experiment: Viability of isolated EMT phenotype SW620 tumor organoids; assay type: cell-based; settings: SW620 E, E/M, 72 h, combined with Compound 6
Description: FIG. 5A provides graphs showing isolated quasi EMT SW620 CRC cells E (red), E/M (yellow), and M (green) were cultured as tumor organoids and treated with SN38 combined with Compound 6 over 72 h as indicated. […].
CHD1L also regulates DNA repair via CHD1L/TCF-driven EMT by upregulating ZEB1 in CRC. ZEB1 promotes mesenchymal cell survival by upregulating the DDR. CHD1Li may sensitize isolated quasi EMT phenotypes by inhibiting EMT and DNA repair. To test this, combination studies with Compound 6 and chemotherapy measuring the viability of isolated EMT dual-reporter quasi-E, -E/M, and -M SW620 (HR-proficient) cells and HCT116 (HR-deficient) cells cultured as tumor organoids were tested. […]. […] […]. Taken together, CHD1Li synergized with chemotherapy and targeted therapy to overcome EMT-mediated drug resistance in CRC.

[3] = tested on: SW620 tumor organoids; settings: 72 h; for IC50: read-out: IC50 SN38
[4] = tested on: Colo679 cells; experiment: DDR biomarkers (pATM, RAD51, 53BP1, γ-H2AX) in Colo679 cells; assay type: cell-based; settings: 4 μM
Description: (§1) Etoposide was used as a control to show upregulation of DDR pathway biomarkers.

[5] = tested on: SUM149 and MDA-MB-231 cells; experiment: DDR biomarkers in breast cancer cells; assay type: cell-based; settings: 4 μM
Description: as §1

[6] = tested on: Colo678 cells; experiment: Colo678 cell viability, combination with chemotherapy; assay type: cell-based; settings: Colo678 cells
[7] = tested on: AIF in MDA-MB-231 cells; experiment: AIF localization in MDA-MB-231 cells; assay type: cell-based; settings: 4 μM
Description: (§2) The ability of Compounds 12, 15 and 16 to localize AIF was tested in SUM149 (breast cancer) and MDA-MB-231 (TNBC) cell lines. A comparison of the relative distribution of AIF in nuclei (a) versus cytoplasm (b) in SUM149 cells and nuclei (c) versus cytoplasm (d) in MDA-MB-231 cells in the presence of 4 μM Compounds 12, 15 and 16 are shown in FIG. 28. […] Similarly, AIF concentration in the cytoplasm of MDA-MB-231 cells decreased by about 0.5 after administration with Compound 15. After treatment with Compound 16, the relative concentration of AIF in the nuclei of SUM149 cells increased by about 0.5-fold, and the concentration of AIF in the cytoplasm decreased by about 0.4-fold. In MDA-MB-231 cells, the relative concentration of AIF in the cytoplasm decreased by about 0.5-fold, while the concentration of AIF increased in the nuclei by about 0.1-fold.

[8] = tested on: AIF in SUM149PT cells; experiment: AIF immunofluorescence in SUM149PT (SUM149) cells; assay type: cell-based; settings: SUM149 cells, 4 μM
Description: CHD1Li-mediated PAR translocation to the cytoplasm activates PARthanatos as a cell death mechanism. Parthanatos is a form a programmed cell death different from apoptosis and known to be mediated by PARP1 overactivation. The unique events occurring during parthanatos are: PARP1 rapid activation, accumulation of PAR and nuclear translocation of apoptosis inducing factor (AIF). Without being bound by any particular theory, accumulation of PAR in the cytoplasm caused by CHD1Li can also mediate parthanatos. To better understand the link between PAR translocation to the cytoplasm and cell death, immunofluorescence to measure the activation of caspase-3 and the subcellular localization of AIF after treatment with SOC drugs and Compound 6 in SUM49PT cells was used. […] Without being bound by any particular theory, this might be caused by the mitochondrial outer membrane permeabilization, which triggers release of mitochondrial proteins like AIF or cytochrome c, activating caspase-3 by its cleavage and leading to apoptosis. […] Moreover, when combining CHD1L inhibition with SOC drugs, the cell death mechanism shifts from apoptosis to parthanatos, evidenced by a significant increase in AIF nuclear translocation and decrease in activation of caspase-3 (FIG. 25D-E).
as §2

[9] = tested on: HCT116 Parental cells; experiment: HCT116 Parental cell viability, combination with chemotherapy; assay type: cell-based; settings: HCT116 cells
[10] = tested on: SW620 Parental cells; experiment: SW620 Parental cell viability, combination with chemotherapy; assay type: cell-based; settings: SW620 cells
[11] = tested on: MiaPaca2 cells; experiment: MiaPaca2 cell viability, combination with chemotherapy; assay type: cell-based; settings: MiaPaca2 cells
Description: The cell viability assays and Bliss synergy analyses are as described above in Examples 1-9 and 11-12.

[12] = SW620 tumor organoids, + Compound 6.11 2.75 μM

CCc1c2c(nc3ccc(O)cc13)-c1cc3c(c(=O)n1C2)COC(=O)[C@]3(O)CC [SN-38]
increase in potency of the chemotherapy ([1]; SW948 tumor organoids, combined with Compound 6): 1000 fold
improvement of cytotoxic potency ([1]; SW948 tumor organoids, combined with Compound 6.11): 1,000 fold
IC50 ([1]; read-out: IC50 SN38, SW948 tumor organoids, SN38 alone): 3160 nM
IC50 ([1]; read-out: IC50 SN38, SW948 tumor organoids, combined with Compound 6.11): 3.2 nM
IC50 ([1]; read-out: IC50 SN-38, SW948 tumor organoids, combined with Compound 6): ~3 nM
IC50 ([1]; read-out: IC50 of chemotherapy alone, SW948 chemo resistant tumor organoids): ~3000 nM
increase of SN38 cytotoxic potency [2]: hundreds-of-fold to thousands-of-fold
increase in cytotoxic potency compared to drug alone [3, 12]: ~ 600 fold
IC50 ([3]; SW620 (ATM wt) tumor organoids, SN38 alone): ~600 nM
IC50 [3, 12]: ~1 nM

Cc1cc(Nc2ccc(NC(=O)c3cnc(Br)s3)cc2)nc(N2CCCC2)n1 [Compound 14, 2-bromo-N-(4-((6-methyl-2-(pyrrolidin-1-yl)pyrimidin-4-yl)amino)phenyl)thiazole-5-carboxamide]
amount of 53BP1 [4]: decrease the amount of 53BP1
amount of pATM [4]: increased the amount of pATM
γ-H2AX concentrations [4]: decreased
amounts of γ-H2AX and 53BP1 [5]: overall decreases in the amounts of γ-H2AX and 53BP1
calculated mean synergy score ([6]; 72 h, combined with SN-38): about 57
calculated mean synergy score ([6]; combined with 5-FU): about 26

Cc1cc(Nc2ccc(NC(=O)Cc3c[nH]c4c(Cl)cccc34)cc2)nc(N2CCCC2)n1 [Compound 16, 2-(7-chloro-1H-indol-3-yl)-N-(4-((6-methyl-2-(pyrrolidin-1-yl)pyrimidin-4-yl)amino)phenyl)acetamide]
amount of 53BP1 [4]: decrease the amount of 53BP1
amount of pATM [4]: increased the amount of pATM
γ-H2AX concentrations [4]: decreased
amounts of γ-H2AX and 53BP1 [5]: overall decreases in the amounts of γ-H2AX and 53BP1
decrease in AIF in the cytoplasm [7]: about 0.5 fold
increase in AIF in the nuclei [7]: about 0.1 fold
calculated mean synergy score ([6]; 72 h, combined with SN-38): about 26
decrease in AIF in the cytoplasm [8]: about 0.4 fold
increase in AIF in the nucleus [8]: about 0.5 fold

Cc1cc(Nc2ccc(NC(=O)c3cc(Br)c[nH]3)cc2)nc(N2CCCC2)n1 [Compound 12, 4-bromo-N-(4-((6-methyl-2-(pyrrolidin-1-yl)pyrimidin-4-yl)amino)phenyl)-1H-pyrrole-2-carboxamide]
amount of 53BP1 [4]: decrease the amount of 53BP1
amount of RAD51 [4]: decrease in RAD51
amount of pATM [4]: increased the amount of pATM
γ-H2AX concentrations [4]: decreased
amounts of γ-H2AX and 53BP1 [5]: overall decreases in the amounts of γ-H2AX and 53BP1
increase in AIF in the nuclei [7]: localized in both the nuclei and remained in the cytoplasm
calculated mean synergy score ([9]; 72 h, combined with SN-38): about 20
calculated mean synergy score ([9]; combined with 5-FU): about 19
calculated mean synergy score ([6]; 72 h, combined with SN-38): about 26
decrease in AIF in the cytoplasm [8]: decrease in AIF in the cytoplasm
increase in AIF in the nucleus [8]: ~1 fold
calculated mean synergy score ([10]; 72 h, combined with SN-38): about 53
calculated mean synergy score ([10]; combined with 5-FU): about 39
calculated mean synergy score ([11]; combined with 5-FU): about 57
calculated mean synergy score ([11]; combined with SN-38): about 18
